Data: US11266624B2, “CRM1 inhibitors reduce primary and acquired resistance of EGFR inhibitors in lung cancer cells” (Texas Tech University System, priority 2018, dated 2022)
Where two headings read alike, the source gives them in different places. Marks after values point to notes of the source that are not given here.

Assays:
A549GLR = assay: cells
Description: (§1) Cell lines and reagents. The NSCLC cell lines A549 and H460 were purchased from American Type Culture Collection (ATCC).
(§2) Cell viability assay. […] Experiments were repeated independently three times.
(§3) Statistical analyses. […] One-way ANOVA was used to determine the difference in the analytical results of flow cytometry, qRT-PCR, Western bot, wound healing assay, anchorage-independent growth assay, transwell invasion assay, and Bio-Plex multiplex immunoassay among groups followed by a Fisher's LSD test. Differences with p<0.05 were considered statistically significant.

A549GR = assay: cells
Description: as §1, §2, §3

A549 [1] = assay: cells
Description: as §1, §2, §3

H460 = assay: MTT cell viability assay in H460; settings: 0.5 nM LMB
Description: as §1, §2, §3

A549 [2] = assay: Analysis of cell cycle by flow cytometry in A549; type: cell-based, human; settings: 48 hrs
Description: Analysis of cell cycle by flow cytometry. […] Each sample was run in triplicate and each experiment was repeated three times.

A549 [3] = assay: Western blot of EGFR signaling and survival pathways in A549; type: cell-based, human
Procedure: Western blot analyses. […] Relative densitometric digital analysis for bands of targeted proteins was determined using Image J and normalized by the intensity of the housekeeping gene, α-tubulin.

A549 [4] = settings: A549 (p53 wide type), 48 hrs; read-out: LMB IC50; cited from earlier work
H522 = H522 (p53-mutant); read-out: LMB IC50; cited from earlier work
H358 = H358 (p53 null); read-out: LMB IC50; cited from earlier work
[5] = single therapeutic agent; cited from earlier work
[6] = system: snail-transduced primary human mammary epithelial cells (HEMCs); settings: 24-72 hrs treatment; cited from earlier work
[7] = system: NSCLC cell lines (A549, H522, and H358) and BEAS-2B; settings: A549, H522, H358 vs BEAS-2B; cited from earlier work
NSCLC cells [8] = settings: cited from earlier work
NSCLC cells [9] = settings: cited from earlier work; remark: listed apart in the source
A549 [10] = settings: A549, KRAS-mutant NSCLC cell line; cited from earlier work
[11] = Homo sapiens, A549, read-out: IC50 of afatinib
[12] = 12 μM gefitinib (alone or + 0.5 nM LMB)
[13] = 24 μM gefitinib (alone or + 0.5 nM LMB)

SMILES: CN(C)C/C=C/C(=O)Nc1cc2c(Nc3ccc(F)c(Cl)c3)ncnc2cc1O[C@H]1CCOC1 [afatinib]
- IC50 (A549GLR; [11]): 8 ± 1.5 µM
- IC50 (A549GR; [11]): 20 ± 2.7 µM
- IC50 (A549 [1]; [11]): 6 ± 1.2 µM

SMILES: CCC(=C/[C@H](C)C/C=C/C(C)=C/[C@@H](C)C(=O)[C@@H](C)[C@H](O)[C@@H](C)C/C(C)=C/C(=O)O)/C=C/[C@@H]1OC(=O)C=C[C@@H]1C [LMB, Leptomycin B]
- Cytotoxic effect (cell viability) (A549GLR): 88±5 % of control
- Cytotoxic effect (cell viability) (A549GR): 96±3 % of control
- Cytotoxic effect (cell viability) (A549 [1]): 89±4 % of control
- Cytotoxic effect (cell viability) (H460): 92±5 % of control
- Cell cycle (%) G0/G1 (A549 [2]; 0.5 nM LMB alone): 57.9 ± 3.1 ^b %
- Cell cycle (%) G2/M (A549 [2]; 0.5 nM LMB alone): 24.4 ± 0.6 ^b %
- Cell cycle (%) Pre-G1 (A549 [2]; 0.5 nM LMB alone): 13.5 ± 2.7 ^b %
- Cell cycle (%) S (A549 [2]; 0.5 nM LMB alone): 3.6 ± 1.2 ^b %
- Relative protein expression level of Akt (A549 [3]; 0.5 nM LMB alone, 48 hrs, A549, control 100.0±0): 86±2
- p21 expression (A549 [3]; A549, 48 hrs, LMB vs control, gefitinib+LMB vs gefitinib alone): dramatically increased
- IC50 (A549 [4]): 13.1 nM
- IC50 (H522): 5.7 nM
- IC50 (H358): 0.5 nM
- Toxicities in phase I trial [5]: gastrointestinal toxicities like malaise and anorexia
- Effect on EMT [6]: reverse EMT
- Cell growth inhibition, cancer vs normal cells [7]: remarkable cell growth inhibition in NSCLC cell lines (A549, H522, and H358) but not normal human lung epithelial cells (BEAS-2B)

SMILES: COc1cc(-c2ncn(/C=C\C(=O)OC(C)C)n2)cc(C(F)(F)F)c1 [KPT-185]
- Synergistic cytotoxic effects with EGFR TKIs (NSCLC cells [8]): no synergistic cytotoxic effects
- Cell cycle arrest (NSCLC cells [9]): arrested NSCLC cells in the G1 phase
- Response of A549 to treatment (A549 [10]): not responsive
- Effect on EMT [6]: reverse EMT

SMILES: COc1cc2ncnc(Nc3ccc(F)c(Cl)c3)c2cc1OCCCN1CCOCC1 [gefitinib]
- Cell cycle (%) G0/G1 (A549 [2]; [12]): 68.0 ± 2.9 ^a %
- Cell cycle (%) G2/M (A549 [2]; [12]): 19.9 ± 2.2 ^a %
- Cell cycle (%) Pre-G1 (A549 [2]; [12]): 2.1 ± 0.4 ^a %
- Cell cycle (%) S (A549 [2]; [12]): 9.7 ± 2.4 ^a %
- Cell cycle (%) G0/G1 (A549 [2]; [13]): 84.0 ± 0.9 ^b %
- Cell cycle (%) G2/M (A549 [2]; [13]): 7.9 ± 0.6 ^b %
- Cell cycle (%) Pre-G1 (A549 [2]; [13]): 4.0 ± 1.3 ^b %
- Cell cycle (%) S (A549 [2]; [13]): 3.4 ± 0.3 ^b %

SMILES: O=C(/C=C\n1cnc(-c2cc(C(F)(F)F)cc(C(F)(F)F)c2)n1)NNc1cnccn1 [KPT-330, Selinexor]
- Response of A549 to treatment (A549 [10]): not responsive
- Effect on EMT [6]: reverse EMT
